In patent US20100190686A1, “NOVEL SECRETED PROTEINS OF ADIPOCYTES FOR DIAGNOSTIC PURPOSES” (The University of Georgia Research Foundation, priority 2007, published 2010):

Columns and labels:
3T3-L1 adipocytes = test: O-GlcNAc levels by Western blot (RL-2 antibody) of whole-cell extracts, mouse immortalized adipocytes; assay type: cell-based; details: PUGNAc 100 μM vs low glucose (LG), FIG. 1
Description: 3T3s cell lines: 3T3-L1 and -F442A fibroblasts were maintained and differentiated on 10 cm plates essentially as previously described^11,25. Briefly, two days after the cells reached confluence, cells were induced to differentiate with high ([…], 3T3-L1) or low (3T3-F442A) glucose ([…]) DMEM containing 10% fetal bovine serum (3T3-L1) or 10% calf serum (3T3-F442A) via addition of 0.5 mM (115 μg/mL) 3-isobutyl-1-methyxanthine (MIX, Sigma), 1 μM (390 ng/mL) dexamethasone (Sigma), and 175 nM (1 μg/mL) recombinant insulin (human, Roche). After 48 hrs (day 2), the medium was replaced with high (3T3-L1) or low (3T3-F442A) glucose DMEM plus 10% FBS and supplemented with 1 μg/mL insulin for an additional 48 hrs. After 96 hrs (day 4), cells were maintained in appropriate medium depending on the condition being examined.
On the designated days (day 4 for 3T3-L1, day 5 for 3T3-F442A, and day 9 for rat primary adipocytes), adipocytes were induced with a combined treatment of low or high glucose containing 10% FBS, with or without insulin (100 nM) and PUGNAc (100 μM, TRC Inc.) according to the experimental conditions described in the results. After 24 hrs incubation, the medium was removed and the cells were washed five times with low or high glucose serum-free DMEM without antibiotics and vitamins and incubated with the last rinse for 15 min. […]

rat primary adipocytes [1] = test: O-GlcNAc levels by Western blot (RL-2 antibody) of whole-cell extracts, rat primary adipocytes; assay type: cell-based; details: PUGNAc 100 μM vs low glucose (LG), FIG. 1
Excerpt: Rat Primary cell culture: inguinal and retroperitoneal fat pads were removed aseptically from male Sprague-Dawley rats (Harlan Industries, Indianapolis, Ind.) and primary preadipocytes were isolated as described in detail previously^26,27. After additional washing and centrifugation steps, the preadipocyte pellet was resuspended in plating medium (high glucose DMEM, antibiotics: PS, 10% FBS) and seeded at an average density of 1.35×10^4 cells/cm^2 for inguinal and 1.63×10^3 cells/cm^2 for retroperitoneal on 10 cm dishes for the differentiation. Primary cells were maintained in a humidified atmosphere containing 5% CO2 in air at 37° C. and cultured to confluence, changing the plating medium every 2 days. After 2 days of confluence, referred to as day 0, the medium was replaced with differentiation medium (high glucose DMEM containing antibiotics and 10% FBS, 0.25 mM MIX, 0.1 μM dexamethasone, and 17 nM insulin) and at day 2, an additional 17 nM of insulin was administered with the plating medium for an additional 48 hrs incubation. The cells were maintained in low glucose DMEM containing 10% FBS and treatments (see below) until harvest. […]

rat primary adipocytes [2] = test: Quantitative LC-MS/MS and 2D-LC-MS/MS analysis of the secreted proteome of primary rat adipocytes; assay type: cell-based
Excerpt: Rat Primary cell culture: inguinal and retroperitoneal fat pads were removed aseptically from male Sprague-Dawley rats (Harlan Industries, Indianapolis, Ind.) and primary preadipocytes were isolated as described in detail previously^26,27. After additional washing and centrifugation steps, the preadipocyte pellet was resuspended in plating medium (high glucose DMEM, antibiotics: PS, 10% FBS) and seeded at an average density of 1.35×10^4 cells/cm^2 for inguinal and 1.63×10^3 cells/cm^2 for retroperitoneal on 10 cm dishes for the differentiation. Primary cells were maintained in a humidified atmosphere containing 5% CO2 in air at 37° C. and cultured to confluence, changing the plating medium every 2 days. After 2 days of confluence, referred to as day 0, the medium was replaced with differentiation medium (high glucose DMEM containing antibiotics and 10% FBS, 0.25 mM MIX, 0.1 μM dexamethasone, and 17 nM insulin) and at day 2, an additional 17 nM of insulin was administered with the plating medium for an additional 48 hrs incubation. The cells were maintained in low glucose DMEM containing 10% FBS and treatments (see below) until harvest.
On the designated days (day 4 for 3T3-L1, day 5 for 3T3-F442A, and day 9 for rat primary adipocytes), adipocytes were induced with a combined treatment of low or high glucose containing 10% FBS, with or without insulin (100 nM) and PUGNAc (100 μM, TRC Inc.) according to the experimental conditions described in the results. After 24 hrs incubation, the medium was removed and the cells were washed five times with low or high glucose serum-free DMEM without antibiotics and vitamins and incubated with the last rinse for 15 min. After the final wash was removed, serum-free media supplemented with insulin (1 nM) or PUGNAc (100 μM) was added and cells were incubated for 16 hrs.
After incubation, the conditioned media were harvested with extreme care and then centrifuged once at 1,800 rpm at 4° C. for 7 min. The supernatants were filtered using 1 μm syringe filters (PALL). The samples were then collected in centrifuge tubes and centrifuged again at 30,000×G at 4° C. for 30 min. The samples were then transferred to an equilibrated spin column (Centriprep YM-3, Amicon, Millipore) and buffer-exchanged at 2,800 G and 4° C. into 40 mM ammonium bicarbonate (NH4HCO3) plus 1 mM DTT and concentrated. The concentrated samples were denatured with 1 M urea, reduced with 10 mM DTT for 1 hr at 56° C., carboxyamidomethylated with 55 mM iodoacetamide in the dark for 45 min, and then digested with 5 μg trypsin (Promega) in 40 mM NH4HCO3 overnight at 37° C. After digestion, the peptides were acidified with 200 μl of 1% trifluoroacetic acid (TFA). Desalting was subsequently performed with C18 spin columns (Vydac Silica C18, The Nest Group, Inc.), and the resulting peptides were dried down in a Speed Vac and stored at −20° C. until analyzed. For the subset of samples to be analyzed for N-linked glycosylation, peptides were resuspended in 19 μl ^18O-water and 1 μl of N-glycanase (PNGaseF, Prozyme) and allowed to incubate for 18 hours at 37° C. Peptides were dried back down and resuspended in 50 μl of 40 mM NH4HCO3 with 1 μg of trypsin, to remove any possible C-terminal incorporation of ^18O from residual trypsin activity^28, for 4 hours and then dried down and stored at −20° C. until analyzed.
The peptides were resuspended with 78 μl of mobile phase A (0.1% formic acid, FA, in water) and 2 μl of mobile phase B (80% acetonitrile, ACN, and 0.1% formic acid in water) and filtered with 0.2 μm filters (Nanosep, PALL). The samples were loaded off-line onto a nanospray tapered capillary column/emitter (360×75×15 μm, PicoFrit, New Objective) self-packed with C18 reverse-phase (RP) resin (8.5 cm, Waters) in a Nitrogen pressure bomb for 10 min at 1,000 p.s.i. (˜5 ul load) and then separated via a 160-min linear gradient of increasing mobile phase B at a flow rate of ˜200 nl/min directly into the mass spectrometer. […]

adipocytes = details: elevation of O-GlcNAc levels with PUGNAc; previously shown (ref 11); cited from earlier work
[3] = type 2 diabetes, randomized controlled trial, cited from earlier work
[4] = PUGNAc treatment vs insulin responsive (LG) condition, same direction with HG+insulin, Table 5

With `CC(=O)N[C@H]1/C(=N/OC(=O)Nc2ccccc2)O[C@H](CO)[C@@H](O)[C@@H]1O` [PUGNAc] the O-GlcNAc levels (3T3-L1 adipocytes) was “elevate O-GlcNAc levels significantly”, the O-GlcNAc levels (rat primary adipocytes [1]) was “elevate O-GlcNAc levels significantly” and the “secretion of serine protease inhibitor 2C (reconstructed ion chromatogram of a peptide)” value (rat primary adipocytes [2]; LG+PUG vs LG (normalized to 1.00), two biological replicates, FIG. 4A) was “upregulation”. The “secretion of tetranectin (reconstructed ion chromatogram of a peptide)” value (rat primary adipocytes [2]; LG+PUG vs LG (normalized to 1.00), two biological replicates, FIG. 4B) was “upregulation”, the “secretion of cholesterol-binding protein NPC2” value (rat primary adipocytes [2]; PUGNAc treatment vs insulin responsive (LG) condition, both insulin resistance conditions) was “upregulated” and the “secretion of GP-39” value (rat primary adipocytes [2]; [4]) was “upregulation”. The secretion of ceruloplasmin (rat primary adipocytes [2]; [4]) was “upregulation”, the “secretion of fibulin-2” value (rat primary adipocytes [2]; [4]) was “downregulated” and the “secretion of lipoprotein lipase” value (rat primary adipocytes [2]; [4]) was “upregulation”. The “secretion of protein-S” value (rat primary adipocytes [2]; [4]) was “upregulation”, the “secretion of slit homolog 3” value (rat primary adipocytes [2]; [4]) was “downregulated” and the secretion of spondin (rat primary adipocytes [2]; [4]) was “upregulation”. For the same compound, the “induction of insulin resistance” value (adipocytes) was “induces insulin resistance”.
For `CN(C)C(=N)N=C(N)N` [metformin], the “cumulative incidence of monotherapy failure at 5 years” value ([3]; 5 years) is given as 21%.
In the case of `CN(CCOc1ccc(CC2SC(=O)NC2=O)cc1)c1ccccn1` (stereo not drawn) [rosiglitazone], the “weight gain and edema” value ([3]; compared with metformin and glyburide) is given as “more weight gain and edema”.
